These results are taken from patent US20110144376A1, “DERMATOLOGICAL AGENT” (SHOWA DENKO K.K., priority 2008, published 2011).

Series [1] deals with three dimensional human skin model MEL-300 (normal human skin keratinocytes containing normal human epidermal melanocytes). Nature of the series: Inhibitory effects for melanocyte dendrite formation (three dimensional human skin model). The series is classed as cell-based. The settings on record: 0.1 ml of a 30 mmol/l solution, MEL-300 cups, 7 days of incubation, vs 0.2% ethanol control, Scheffe, significance level 5%, n=3 (FIG. 1). The method, then: Melanin formation inhibitory effects of the compounds 4 and 5 shown in Table 1 were evaluated using three dimensional human skin model MEL-300 (normal human skin keratinocytes containing normal human epidermal melanocytes). The MEL-300 skin model cups were transferred to a 6-well plate, each well containing 0.9 ml of EPI-100-LLMM maintenance medium, and were pre-incubated at 37° C. and 5% CO2 for 1 hour.
The maintenance medium was suction removed, and 5 ml of the maintenance medium was newly added. Thereafter, 0.1 ml of a 30 mmol/l solution of the compound 4 or 5 was added to the MEL-300 skin model cups, and the resultant were incubated. The controls were given 0.1 ml of a 0.2% ethanol solution.
The maintenance medium and the test substance were replaced every two days, and the incubation was performed for 7 days. After the 7 days of incubation, the cells inside the three dimensional human skin model cup were photographed, and the proportion (%) of the area of melanocytes was calculated by image analysis. Significant difference was tested by a post-hoc test (Scheffe method). The significance level was 5%. […] In this experiment, n=3.

Series [2] has the same test system. Nature of the series: Melanin synthesis inhibitory test (three dimensional human skin model). The series is classed as cell-based. The settings on record: 0.1 ml of a 30 mmol/l solution, MEL-300 cups, 14 days of incubation, vs 0.2% ethanol control, Scheffe, significance level 1%, n=3 (FIG. 2). The procedure:
Melanin formation inhibitory effects of the compounds 4 or 5 shown in Table 1 were evaluated using three dimensional human skin model MEL-300 (normal human skin keratinocytes containing normal human epidermal melanocytes). The MEL-300 skin model cups were transferred to a 6-well plate, each well containing 0.9 ml of EPI-100-LLMM maintenance medium, and were pre-incubated at 37° C. and 5% CO2 for 1 hour.
The maintenance medium was suction removed, and 5 ml of the maintenance medium was newly added. Thereafter, 0.1 ml of a 30 mmol/l solution of the compound 4 or 5 was added to the MEL-300 skin model cups, and the resultant were incubated. The controls were given 0.1 ml of a 0.2% ethanol solution. The positive controls were given 0.1 ml of a 30 mmol/l kojic acid solution.
The maintenance medium and the test substance were replaced every two days, and the incubation was performed for 14 days. […]
After the reaction, the reaction liquid was sufficiently stirred and the incubated skin piece was completely crushed. […] The supernatant was analyzed to determine the absorbance at 405 nm. A linear calibration curve was prepared based on the absorbances of melanin solutions of known concentrations that had been treated similarly. The melanin contents in the incubated skin pieces were thus determined. […]

Series [3] has as its system C3H mice. Nature of the series: Accelerating effects for mouse body hair growth. The settings on record: male C3H/HeN mice, shaved dorsal region, 0.1 ml of a 50 μmol/g ointment once a day, Day 18, vs coating stimulation only, Scheffe, significance level 5%, n=6 (FIG. 3). It counts as in vivo. The procedure: Male C3H/HeN that were seven weeks old in a telogen hair cycle were used.
The dorsal region of the mice was shaved with an electrical hair clipper (0.05 mm blades) and an electrical shaver. From the next day, 0.1 ml of a 50 μmol/g ointment of the compound 4 or 5 was coated on the shaved regions once a day using a bacteria spreader. The controls were given only coating stimulation with a bacteria spreader.
The dorsal region of the mice on Day 18 after the initiation of coating was photographed. The proportion of the area of the region where hair had regrown relative to the total area of the shaved region was calculated by image analysis. The value obtained thereby indicated the hair regrowth rate (%). Significant difference was tested by a post-hoc test (Scheffe method). The significance level was 5%.
In this experiment, n=6 for the test substances and n=7 for the controls.

For series [4] the following is noted: background art statement; cited from earlier work.

Consider `COc1c(OC(=O)CN(C)C)c(C)c(CC=C(C)CCC=C(C)CCC=C(C)CCC=C(C)CCC=C(C)CCC=C(C)CCC=C(C)CCC=C(C)CCC=C(C)CCC=C(C)C)c(OC(=O)CN(C)C)c1OC.Cl` [Compound 4, 2,3-dimethoxy-5-methyl-6-decaisoprenylbenzene 1,4-bis-N,N-dimethyl glycinate hydrochloride], for which the “formation of melanocyte dendrites (proportion (%) of the area of melanocytes by image analysis)” value in series [1] was “significantly inhibited”. Further, in series [2], the “melanin production (melanin contents in the incubated skin pieces, absorbance at 405 nm)” value is given as “significantly decreased”. The “hair regrowth rate (%)” value in series [3] is recorded as “significantly increased”.
The like results for `COc1c(O)c(CC=C(C)CCC=C(C)CCC=C(C)CCC=C(C)CCC=C(C)CCC=C(C)CCC=C(C)CCC=C(C)CCC=C(C)CCC=C(C)C)c(C)c(OC(=O)CN(C)C)c1OC.Cl` [Compound 5, 2,3-dimethoxy-5-methyl-6-decaisoprenyl-1-hydroxybenzene 4-N,N-dimethyl glycinate hydrochloride] were, in that order, “significantly inhibited”, “significantly decreased” and “significantly increased”.
As to `COC1=C(OC)C(=O)C(CC=C(C)CCC=C(C)CCC=C(C)CCC=C(C)CCC=C(C)CCC=C(C)CCC=C(C)CCC=C(C)CCC=C(C)CCC=C(C)C)=C(C)C1=O` [ubiquinone-10, 2,3-dimethoxy-5-methyl-6-decaisoprenyl-1,4-benzoquinone], the solubility in water entry in series [4] is given as “completely insoluble in water”.
